Like-named read-outs stand apart in the source and are kept apart here.
Key:
[1] = tested on: P. vivax field isolates; assay: In vitro assay against P. vivax field isolates; type: cell-based; settings: read-out: P. vivax IC50, field isolates
Source text: Ten P. vivax isolates were collected from June to July 2010 from malaria patients attending the Shoklo Malaria Research Unit (SMRU) clinics, Mae Sot region of the Tak Province in north-western Thailand under the ethical guidelines in the approved protocol OXTREC 027-05 (Centre for Clinical Vaccinology and Tropical Medicine, University of Oxford, Oxford, UK). These samples were collected from patients with no prior antimalarial therapy and with microscopically confirmed P. vivax. After written consent, blood samples were collected by venepuncture in 5 mL volume lithium heparinized tubes, which were then transported to the laboratory at SMRU within 5 h of collection. The ten isolates were chosen for testing because the majority (>80%) of the parasites were at the mid trophozoite stage (around 20 h post invasion) and no schizonts were detected.

[2] = tested on: chloroquine-sensitive and resistant P. falciparum strains; assay: In vitro antimalarial activity, range over the strain panel; type: cell-based; settings: D10, W-2, FCR1, FCR3, TM91C235; range over strains and forms; read-out: IC50 range against CQ-S and CQ-R P. falciparum strains
[3] = parameters: method as in PMID 19651905; settings: pH 7.4; cited from earlier work
[4] = Microsome stability and metabolism studies, mouse; type: in vitro ADME; parameters: key: +: Metabolic Products Detected In Vitro and In Vivo; ND: Not detectable; settings: (−)-AM1 1 μM, at 30 min
Protocol: (§1) Samples from the metabolic stability and metabolism studies were analyzed under the following conditions: UPLC interfaced with a Premiere XE triple Quadrupole Waters for stability studies, and Bruker Daltonics Ion Trap HCT Ultra for metabolic studies. A gradient from 2% to 100% (Water, MeOH, 5 mM Ammonium Acetate) over 2 min (stability) or 12 min (metabolism) in a C18 BEH (dimensions 1 by 50 mm for stability and 2.1 by 100 mm for metabolism, 1.7 µm column, 45 °C temperature, flow rate 0.5 mL/min) was used. For stability studies, the detection was performed in MRM (ESI positive, Q1/Q3 330.16/152.00, Cone Voltage 45 V; Extractor 5 V; Capillary 3.4 kV), while for metabolism studies, analysis was performed in Auto MS/MS mode (ESI positive; Capillary 109 V; Dry Temp 350 °C; Nebulizer 30 psi; Dry gas 10 L/min; HV capillary 500 V; Mass Accu time 500 µs; Mass range MS scan 100–600 amu, MS/MS 50–450 amu).
(§2) For stability and metabolism studies, test compounds were dissolved in DMSO, diluted at the final concentration of 1 µM, and pre-incubated in duplicate for 10 min at 37 °C in potassium phosphate buffer, pH 7.4, 3 mM MgCl2, with rat, mouse, and human hepatic microsomes (Xenotech Europe, Pfungstadt, Germany) at the final concentration of 0.5 mg/mL. The reaction was then started by adding the cofactor mixture of NADP, Glc6P, and G6P-DH, in the presence of UDPGA 1 mM in human microsomes to promote glucuronide formation. Acetonitrile (with verapamil as internal standard) was added to the samples at the times time 0 and 30 min to stop the reaction. Samples were then centrifuged and the supernatants analysed and quantified by LC-MS/MS. Reference compounds of known metabolic stability, 7-ethoxycoumarin (7-EC) and propranolol, were used as controls.
(§3) The percentage of the area of test compounds remaining after 30 min incubation was calculated in respect to the area of compounds at time = 0 min. […] Samples were re-analyzed by acquiring the daughter scan of the potential metabolites found during the full scan acquisition.

[5] = Microsome stability and metabolism studies, rat; type: in vitro ADME; parameters: key: +: Metabolic Products Detected In Vitro and In Vivo; ND: Not detectable; settings: (−)-AM1 1 μM, at 30 min
Protocol: as §1, §2, §3

[6] = Microsome stability and metabolism studies, human; type: in vitro ADME; parameters: key: +: Metabolic Products Detected In Vitro and In Vivo; ND: Not detectable; settings: (−)-AM1 1 μM, at 30 min
Protocol: Samples from the metabolic stability and metabolism studies were analyzed under the following conditions: UPLC interfaced with a Premiere XE triple Quadrupole Waters for stability studies, and Bruker Daltonics Ion Trap HCT Ultra for metabolic studies. A gradient from 2% to 100% (Water, MeOH, 5 mM Ammonium Acetate) over 2 min (stability) or 12 min (metabolism) in a C18 BEH (dimensions 1 by 50 mm for stability and 2.1 by 100 mm for metabolism, 1.7 µm column, 45 °C temperature, flow rate 0.5 mL/min) was used. […]
For stability and metabolism studies, test compounds were dissolved in DMSO, diluted at the final concentration of 1 µM, and pre-incubated in duplicate for 10 min at 37 °C in potassium phosphate buffer, pH 7.4, 3 mM MgCl2, with rat, mouse, and human hepatic microsomes (Xenotech Europe, Pfungstadt, Germany) at the final concentration of 0.5 mg/mL. […] Samples were then centrifuged and the supernatants analysed and quantified by LC-MS/MS. […]
as §3

[7] = tested on: P. falciparum TM91C235 (multidrug-resistant); assay: In vitro chemosensitivity assay (pLDH), TM91C235 strain; type: cell-based; settings: Plasmodium falciparum, 72 h, read-out: P. falciparum IC50, TM91C235
[8] = tested on: P. falciparum FCR1 (CQ-R); assay: In vitro chemosensitivity assay (pLDH), FCR1 strain; type: cell-based; settings: Plasmodium falciparum, 72 h, read-out: P. falciparum IC50, FCR1
[9] = tested on: P. falciparum FCR3 (CQ-R); assay: In vitro chemosensitivity assay (pLDH), FCR3 strain; type: cell-based; settings: Plasmodium falciparum, FCR3, 72 h, read-out: P. falciparum IC50, FCR3
[10] = tested on: P. falciparum D10 (CQ-S); parameters: method as in PMID 22901673; settings: 72 h incubation, pLDH method, mean of 3 experiments; data already published; cited from earlier work
[11] = tested on: P. falciparum W-2 (CQ-R); parameters: method as in PMID 22901673; settings: 72 h incubation, pLDH method, mean of 3 experiments; data already published; cited from earlier work
[12] = Maximum tolerated dose in CD1 mice; settings: CD1, mouse, in vivo, ip

Which IC50 ([1]; 10 field isolates from the Thai–Burmese border, mean) does the source give for `Clc1ccc2c(NCC3CCCN4CCCCC34)ccnc2c1` (stereo not shown) [AM1, 7-chloro-4-(N-lupinyl)aminoquinoline] here?
Its IC50 is 29 nM.

And the IC50 [2]?
The IC50 was 16 to 53 nM.

What about the LogD7.4 [3] of the same molecule?
The LogD7.4 was 2.26.

For `O=C(Nc1ccnc2cc(Cl)ccc12)[C@@H]1CCCN2CCCC[C@H]12` [C00002], which “Metabolic products detected, in vitro microsomes, mouse” value [4] is on record?
Its value is “+”.

And the “Metabolic products detected, in vitro microsomes, rat” value [5]?
The value was “+”.

What about the “Metabolic products detected, in vitro microsomes, human” value [6] of the same molecule?
Its value is “+”.

With `CCN(CC)CCCC(C)Nc1ccnc2cc(Cl)ccc12` (stereo not shown) [CQ, chloroquine, reference compound] as the molecule, how does the IC50 [7] read?
The IC50 was 199 nM.

What about the IC50 [8] of the same molecule?
The IC50 was 182 nM.

And the IC50 [9]?
The IC50 was 113 nM.

And the IC50 ([1]; Plasmodium vivax)?
Its IC50 is 86.7 nM.

What about the IC50 [10] of the same molecule?
Its IC50 is 23.7 nM.

What about the IC50 [11] of the same molecule?
Its IC50 is 438 nM.

What about the MTD [12] of the same molecule?
The MTD was 50 mg/kg.

Reference: PMC6149971, “In Vivo and In Vitro Activities and ADME-Tox Profile of a Quinolizidine-Modified 4-Aminoquinoline: A Potent Anti-P. falciparum and Anti-P. vivax Blood-Stage Antimalarial” (Molecules : A Journal of Synthetic Chemistry and Natural …, 2017)
